Like-named read-outs stand apart in the source and are kept apart here.
How the values were obtained:
[1] = molecular target: T1, hA2A receptors expressed in CHO cells (Homo sapiens, UniProt P29274); assay: [3H]CGS21680 binding hA2A CHO cells; conditions: [3H]-CGS 21680, hA2A CHO cell membranes, 180 min at 25° C.; mean ± s.e. mean
T1 construct: expressed in transfected cells; host or cells: CHO cells (stably transfected, per Klotz et al. 1998); membrane preparation
Procedure: (§2) The cells are grown adherently and maintained in Dulbecco's Modified Eagles Medium with nutrient mixture F12 (DMEM/F12) without nucleosides, containing 10% fetal calf serum, penicillin (100 U/mL), streptomycin (100 μg/mL), L-glutamine (2 mM) and Geneticin (G418, 0.2 mg/mL) at 37° C. in 5% CO2/95% air. […] For membrane preparation the culture medium is removed and the cells are washed with PBS and scraped off T75 flasks in ice-cold hypotonic buffer (5 mM Tris HCl, 2 mM EDTA, pH 7.4). The cell suspension is homogenized and centrifuged for 30 min at 100,000×g. The membrane pellet is re-suspended in 50 mM Tris HCl buffer pH 7.4 and incubated with 2 UI/mL of adenosine deaminase for 30 min at 37° C.
(§3) Binding of 1 nM [^3H]—CHA to hA1CHO cells (50 μg of protein/assay) is performed using 50 mM Tris HCl buffer pH 7.4 and at least 6-8 different concentrations of agonists studied for an incubation time of 150 min at 25° C. […] Non-specific binding is determined in the presence of 10 μM of CHA and is about 20% of the total binding. […] Filter bound radioactivity is measured by scintillation spectrometry after addition of 5 mL of Aquassure.
(§4) All experimental data are expressed as the mean±standard error of the mean (s.e. mean) of three or four independent experiments performed in duplicate.

[2] = molecular target: T2, hA1 receptors expressed in CHO cells (Homo sapiens, UniProt P30542); assay: [3H]CHA binding hA1 CHO cells
T2 sequence (P30542 1-326): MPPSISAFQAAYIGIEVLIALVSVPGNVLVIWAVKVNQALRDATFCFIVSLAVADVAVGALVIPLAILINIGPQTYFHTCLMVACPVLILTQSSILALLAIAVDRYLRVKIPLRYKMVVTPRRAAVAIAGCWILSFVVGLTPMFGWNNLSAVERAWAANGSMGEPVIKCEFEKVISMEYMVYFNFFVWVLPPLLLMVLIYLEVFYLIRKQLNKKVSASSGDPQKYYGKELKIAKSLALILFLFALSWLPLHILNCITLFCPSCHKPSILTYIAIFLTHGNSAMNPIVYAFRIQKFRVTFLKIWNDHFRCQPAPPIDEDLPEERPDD
Procedure: as §2, §3, §4

[3] = molecular target: T3, hA2B receptors expressed in CHO cells (Homo sapiens, UniProt P29275); assay: cAMP assay hA2B CHO cells; format: cell-based; conditions: for Selectivity hA1/hA2B: ratio hA1 Ki / hA2B EC50; for Selectivity hA2A/hA2B: ratio hA2A Ki / hA2B EC50; for Selectivity hA3/hA2B: ratio hA3 IC50 / hA2B EC50; for EC50: stimulation of cAMP levels, hA2B CHO cells, mean ± s.e. mean
T3 construct: expressed in transfected cells; host or cells: CHO cells
T3 sequence (P29275 1-332): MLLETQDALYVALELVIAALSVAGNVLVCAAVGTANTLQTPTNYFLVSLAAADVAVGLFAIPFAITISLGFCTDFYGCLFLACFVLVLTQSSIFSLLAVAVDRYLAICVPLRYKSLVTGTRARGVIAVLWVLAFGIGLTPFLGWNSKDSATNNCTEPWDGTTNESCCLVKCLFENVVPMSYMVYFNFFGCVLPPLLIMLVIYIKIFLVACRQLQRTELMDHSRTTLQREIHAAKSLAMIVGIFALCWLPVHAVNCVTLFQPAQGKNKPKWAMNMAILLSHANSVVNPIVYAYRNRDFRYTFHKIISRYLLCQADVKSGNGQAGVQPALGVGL
Procedure: The effects of the tested compounds may be evaluated in functional assays measuring the stimulatory capability of the ligands to increase cAMP levels in hA2B receptors expressed in CHO cells. This may done as described by Pastorin et al. in “Pyrazolo[4,3-e]-1,2,4-triazolo[1,5-c]pyrimidine derivatives as adenosine receptor antagonists.
(§1) For cell preparation CHO cells transfected with human A2B or A3 receptors are washed with phosphate-buffered saline and diluted trypsin, and centrifuged for 10 min at 200 g. […] After the preincubation time at 37° C., the examined ligands (1 nM-10 μM) are added to the mixture and incubated for a further 5 min. The reaction is terminated by the addition of cold 6% trichloroacetic acid (TCA). The TCA suspension is centrifuged at 2000 g for 10 min at 4° C. and the supernatant is extracted four times with water saturated diethyl ether. […] Samples of cyclic AMP standard (0-10 pmoles) are added to each test tube containing the incubation buffer (trizma base 0.1 mM, aminophylline 8.0 mM, 2-mercaptoethanol 6.0 mM, pH 7.4) and [^3H]cyclic AMP in total volume of 0.5 mL. The binding protein previously incubated at 4° C. for 150 min, and after the addition of charcoal is centrifuged at 2000 g for 10 min. The clear supernatant is counted in a Beckman scintillation counter.

[4] = molecular target: T4, human A3 receptors in CHO cells (Homo sapiens, UniProt P0DMS8); assay: cAMP assay hA3 CHO cells; format: cell-based; conditions: cyclic AMP assay, mean ± s.e. mean
T4 construct: expressed in transfected cells; host or cells: CHO cells
T4 sequence (P0DMS8 1-318): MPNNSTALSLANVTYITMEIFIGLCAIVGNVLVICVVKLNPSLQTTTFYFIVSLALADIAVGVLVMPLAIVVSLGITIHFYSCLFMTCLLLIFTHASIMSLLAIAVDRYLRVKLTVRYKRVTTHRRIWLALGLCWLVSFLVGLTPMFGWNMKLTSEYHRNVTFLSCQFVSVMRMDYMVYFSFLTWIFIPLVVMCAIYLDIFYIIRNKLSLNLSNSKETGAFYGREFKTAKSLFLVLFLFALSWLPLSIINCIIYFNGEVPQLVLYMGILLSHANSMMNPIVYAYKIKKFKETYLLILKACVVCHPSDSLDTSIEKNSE
Procedure: as §1

[5] = read-out: [3H]CHA binding hA1 CHO cells Ki, 1 nM [3H]-CHA, hA1 CHO cell membranes, 150 min at 25° C., mean ± s.e. mean

T1 sequence (P29274 whole entry): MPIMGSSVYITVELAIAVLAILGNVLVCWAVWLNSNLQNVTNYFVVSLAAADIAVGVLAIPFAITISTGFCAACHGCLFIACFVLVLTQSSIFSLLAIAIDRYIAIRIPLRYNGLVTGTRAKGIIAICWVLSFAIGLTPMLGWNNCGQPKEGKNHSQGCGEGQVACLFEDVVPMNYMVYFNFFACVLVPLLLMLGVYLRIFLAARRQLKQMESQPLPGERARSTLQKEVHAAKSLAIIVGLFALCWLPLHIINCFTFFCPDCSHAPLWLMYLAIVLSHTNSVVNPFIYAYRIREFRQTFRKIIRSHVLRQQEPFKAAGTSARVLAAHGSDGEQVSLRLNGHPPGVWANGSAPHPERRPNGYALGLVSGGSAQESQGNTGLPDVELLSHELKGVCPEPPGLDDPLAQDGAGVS

| SMILES | Ki [1] | Ki [2, 5] | Selectivity hA1/hA2B [3] | Selectivity hA2A/hA2B [3] | Selectivity hA3/hA2B [3] | EC50 [3] | IC50 [4] | melting point | Ki [2] |
| --- | --- | --- | --- | --- | --- | --- | --- | --- | --- |
| CCNC(=O)[C@H]1O[C@@H](n2cnc3c(NNC(=O)Cc4cccs4)nc(Cl)nc32)[C@H](O)[C@@H]1O [Compound 20b, (2S, 3S, 4R, 5R)-5-{2-Chloro-6-[N′-(2-thiophene-2-yl-acetyl)-hydrazino]-9H-purin-9-yl}-3,4-dihydroxy-tetrahydrofuran-2-carboxylic acid ethylamide] | 633 ± 60 nM | 62 ± 4 nM | 0.10 | 1.05 | 0.11 | 603 ± 31 nM | 67 ± 4 nM | 153 to 154 °C | – |
| CCNC(=O)[C@H]1O[C@@H](n2cnc3c(NNC(=O)c4ccc(C)s4)nc(Cl)nc32)[C@H](O)[C@@H]1O [Compound 19b, (2S, 3S, 4R, 5R)-5-{2-Chloro-6-[N′-(5-methyl-thiophene-2-carbonyl)-hydrazino]-9H-purin-9-yl}-3,4-dihydroxy-tetrahydrofuran-2-carboxylic acid ethylamide] | > 1000 nM | – | >5.71 | >5.71 | >5.71 | 175 ± 20 nM | > 1000 nM | 156 °C | > 1000 nM |
| CCNC(=O)[C@H]1O[C@@H](n2cnc3c(NNC(=O)c4ccc[nH]4)nc(Cl)nc32)[C@H](O)[C@@H]1O [Compound 24b, (2S, 3S, 4R, 5R)-5-{2-Chloro-6-[N′-(1H-pyrrole-2-carbonyl)-hydrazino]-9H-purin-9-yl}-3,4-dihydroxy-tetrahydrofuran-2-carboxylic acid ethylamide] | > 1000 nM | 610 ± 32 nM | 1.70 | >2.78 | >2.78 | 359 ± 36 nM | > 1000 nM | 230 to 231 °C | – |
| CCNC(=O)[C@H]1O[C@@H](n2cnc3c(NNC(=O)c4ccccc4)nc(Cl)nc32)[C@H](O)[C@@H]1O [Compound 17b, (2S, 3S, 4R, 5R)-5-[6{N′-Benzoyl-hydrazino)-2-chloro-9H-purin-9-yl}-3,4-dihydroxy-tetrahydrofuran-2-carboxylic acid ethylamide] | > 1000 nM | – | – | – | – | > 1000 nM | > 1000 nM | 253 to 254 °C | > 1000 nM |
| CCNC(=O)[C@H]1O[C@@H](n2cnc3c(NNC(=O)c4ccc(Cl)cc4)ncnc32)[C@H](O)[C@@H]1O [Compound 10b, (2S, 3S, 4R, 5R)-5-{6-[N′-(4-Chlorobenzoyl)-hydrazino]-9H-purin-9-yl}-3,4-dihydroxy-tetrahydrofuran-2-carboxylic acid ethylamide] | > 1000 nM | – | – | – | – | > 1000 nM | > 1000 nM | 188 to 189 °C | > 1000 nM |

From patent US7691825B2, “Adenosine A2B receptor agonists” (King Pharmaceuticals Research and Development, Inc., priority 2006, dated 2010)
